Assay results as given in PubChem BioAssay AID2060904 (Molecular Pharmacology Branch, DTP, NCI, 2025).
Where “and” joins values, the source holds several entries; their conditions need not be identical. Equal entries are not always repeated.

Tested on: 349418-098-R-PDC complex spheroid viability
Test: Anticancer human tumor 349418-098-R-PDC patient-derived lung adenocarcinoma cell line growth inhibition [RAS]
Conditions: for viability, T/C: stronger effect = lower value
How it was run: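 Tumour cells grown as complex spheroids with HUVEC endothelial cells and mesenchymal stem cells, treated with RAS pathway inhibitor combinations. Each agent spans half-log steps from near clinical Cmax, or 10 microM where Cmax is unknown.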

[1] = curve of first compound, second compound 0.000949 µM
[2] = curve of first compound, second compound 0.003 µM
[3] = curve of first compound, second compound 0.00949 µM
[4] = curve of first compound, second compound 0.03 µM
[5] = curve of first compound, second compound 0.0949 µM
[6] = curve of first compound, second compound 0.3 µM
[7] = second compound 0.000949 µM, first compound 0.0316 µM
[8] = second compound 0.000949 µM, first compound 0.1 µM
[9] = second compound 0.000949 µM, first compound 0.316 µM
[10] = second compound 0.000949 µM, first compound 1 µM
[11] = second compound 0.000949 µM, first compound 3.16 µM
[12] = second compound 0.000949 µM, first compound 10 µM
[13] = second compound 0.003 µM, first compound 0.0316 µM
[14] = second compound 0.003 µM, first compound 0.1 µM
[15] = second compound 0.003 µM, first compound 0.316 µM
[16] = second compound 0.003 µM, first compound 1 µM
[17] = second compound 0.003 µM, first compound 3.16 µM
[18] = second compound 0.003 µM, first compound 10 µM
[19] = second compound 0.00949 µM, first compound 0.0316 µM
[20] = second compound 0.00949 µM, first compound 0.1 µM
[21] = second compound 0.00949 µM, first compound 0.316 µM
[22] = second compound 0.00949 µM, first compound 1 µM
[23] = second compound 0.00949 µM, first compound 3.16 µM
[24] = second compound 0.00949 µM, first compound 10 µM
[25] = second compound 0.03 µM, first compound 0.0316 µM
[26] = second compound 0.03 µM, first compound 0.1 µM
[27] = second compound 0.03 µM, first compound 0.316 µM
[28] = second compound 0.03 µM, first compound 1 µM
[29] = second compound 0.03 µM, first compound 3.16 µM
[30] = second compound 0.03 µM, first compound 10 µM
[31] = second compound 0.0949 µM, first compound 0.0316 µM
[32] = second compound 0.0949 µM, first compound 0.1 µM
[33] = second compound 0.0949 µM, first compound 0.316 µM
[34] = second compound 0.0949 µM, first compound 1 µM
[35] = second compound 0.0949 µM, first compound 3.16 µM
[36] = second compound 0.0949 µM, first compound 10 µM
[37] = second compound 0.3 µM, first compound 0.0316 µM
[38] = second compound 0.3 µM, first compound 0.1 µM
[39] = second compound 0.3 µM, first compound 0.316 µM
[40] = second compound 0.3 µM, first compound 1 µM
[41] = second compound 0.3 µM, first compound 3.16 µM
[42] = second compound 0.3 µM, first compound 10 µM
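Also: spheroids exposed to compound for seven days before viability readout.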

In the case of CCC(CC)c1cc(NC2CCC(N)C2)n2nccc2n1 (stereo unspecified) + C=CC(=O)N1CCN(c2nc(OCC3CCCN3C)nc3c(F)c(-c4nc(N)cc(C)c4C(F)(F)F)c(Cl)cc23)C(C)C1, the IC50 (curve of first compound, second compound 0.00316 µM) is reported as 720 nM, the IC50 (curve of first compound, second compound 0.01 µM) is reported as 996 nM and the IC50 (curve of first compound, second compound 0.0316 µM) is reported as 797 nM. For the same compound, the IC50 (curve of first compound, second compound 0.1 µM) was 884 nM, the IC50 (curve of first compound, second compound 0.316 µM) was 588 nM and the IC50 (curve of first compound, second compound 1 µM) was 1100 nM. The viability, T/C (second compound 0.00316 µM, first compound 0.0316 µM) was 114%, the viability, T/C (second compound 0.00316 µM, first compound 0.1 µM) was 108% and the viability, T/C (second compound 0.00316 µM, first compound 0.316 µM) was 76.1%. For the same compound, the viability, T/C (second compound 0.00316 µM, first compound 1 µM) was 43.2%, the viability, T/C (second compound 0.00316 µM, first compound 3.16 µM) was 3.31% and the viability, T/C (second compound 0.00316 µM, first compound 10 µM) was 2.99%. For the same compound, the viability, T/C (second compound 0.01 µM, first compound 0.0316 µM) was 110%, the viability, T/C (second compound 0.01 µM, first compound 0.1 µM) was 86.8% and the viability, T/C (second compound 0.01 µM, first compound 0.316 µM) was 84.8%. For the same compound, the viability, T/C (second compound 0.01 µM, first compound 1 µM) was 53.8%, the viability, T/C (second compound 0.01 µM, first compound 3.16 µM) was 3.18% and the viability, T/C (second compound 0.01 µM, first compound 10 µM) was 2.92%. The viability, T/C (second compound 0.0316 µM, first compound 0.0316 µM) was 85.3%, the viability, T/C (second compound 0.0316 µM, first compound 0.1 µM) was 114% and the viability, T/C (second compound 0.0316 µM, first compound 0.316 µM) was 88%. It also gave a viability, T/C (second compound 0.0316 µM, first compound 1 µM) of 40.8%, a viability, T/C (second compound 0.0316 µM, first compound 3.16 µM) of 2.8% and a viability, T/C (second compound 0.0316 µM, first compound 10 µM) of 2.99%. For the same compound, the viability, T/C (second compound 0.1 µM, first compound 0.0316 µM) was 73%, the viability, T/C (second compound 0.1 µM, first compound 0.1 µM) was 80.5% and the viability, T/C (second compound 0.1 µM, first compound 0.316 µM) was 102%. It also gave a viability, T/C (second compound 0.1 µM, first compound 1 µM) of 45.8%, a viability, T/C (second compound 0.1 µM, first compound 3.16 µM) of 3.01% and a viability, T/C (second compound 0.1 µM, first compound 10 µM) of 3.2%. For the same compound, the viability, T/C (second compound 0.316 µM, first compound 0.0316 µM) was 111%, the viability, T/C (second compound 0.316 µM, first compound 0.1 µM) was 88.1% and the viability, T/C (second compound 0.316 µM, first compound 0.316 µM) was 75.7%. The viability, T/C (second compound 0.316 µM, first compound 1 µM) was 31.7%, the viability, T/C (second compound 0.316 µM, first compound 3.16 µM) was 3.42% and the viability, T/C (second compound 0.316 µM, first compound 10 µM) was 2.54%. It also gave a viability, T/C (second compound 1 µM, first compound 0.0316 µM) of 78.8%, a viability, T/C (second compound 1 µM, first compound 0.1 µM) of 71.9% and a viability, T/C (second compound 1 µM, first compound 0.316 µM) of 85.4%. The viability, T/C (second compound 1 µM, first compound 1 µM) was 54.3%, the viability, T/C (second compound 1 µM, first compound 3.16 µM) was 3.58% and the viability, T/C (second compound 1 µM, first compound 10 µM) was 4.86%.

Compound CC1(O)CCCC1n1c(=O)c(C(F)F)cc2cnc(NC3CCN(S(C)(=O)=O)CC3)nc21 (stereo unspecified) + CCn1c(-c2cccnc2C(C)OC)c2c3cc(ccc31)N1CCOC(CC(NC(=O)C(C(C)C)N(C)C(=O)C3(F)CCN(C(=O)C#CC(C)(C)N(C)C)CC3)C(=O)N3CCCC(N3)C(=O)OCC(C)(C)C2)C1 has an IC50 [1] of 54.1 nM, an IC50 [2] of 54.9 nM and an IC50 [3] of 76.3 nM. It also gave an IC50 [4] of 71 nM, an IC50 [5] of 64.2 nM and an IC50 [6] of 31.6 nM. It also gave a viability, T/C [7] of 60.9%, a viability, T/C [8] of 35.5% and a viability, T/C [9] of 27.6%. The viability, T/C [10] was 21.5%, the viability, T/C [11] was 18.8% and the viability, T/C [12] was 2.67%. The viability, T/C [13] was 60.3%, the viability, T/C [14] was 38.4% and the viability, T/C [15] was 24.2%. It also gave a viability, T/C [16] of 20.4%, a viability, T/C [17] of 17.7% and a viability, T/C [18] of 2.71%. It also gave a viability, T/C [19] of 67.8%, a viability, T/C [20] of 45.8% and a viability, T/C [21] of 23.9%. The viability, T/C [22] was 20.4%, the viability, T/C [23] was 15.9% and the viability, T/C [24] was 3.42%. It also gave a viability, T/C [25] of 70.3%, a viability, T/C [26] of 39.7% and a viability, T/C [27] of 24.8%. For the same compound, the viability, T/C [28] was 19.2%, the viability, T/C [29] was 20% and the viability, T/C [30] was 2.63%. For the same compound, the viability, T/C [31] was 74%, the viability, T/C [32] was 31.6% and the viability, T/C [33] was 22.3%. It also gave a viability, T/C [34] of 19.5%, a viability, T/C [35] of 16.4% and a viability, T/C [36] of 2.35%. It also gave a viability, T/C [37] of 52.5%, a viability, T/C [38] of 31.6% and a viability, T/C [39] of 22.4%. For the same compound, the viability, T/C [40] was 19%, the viability, T/C [41] was 18.4% and the viability, T/C [42] was 2.97%.

For CC(Nc1ccc2c(c1)OCCn1cc(N3C(=O)OCC3C(F)F)nc1-2)C(N)=O (stereo unspecified) + CCn1c(-c2cc(N3CCN(C)CC3)cnc2C(C)OC)c2c3cc(ccc31)-c1csc(n1)CC(NC(=O)C1CC1C)C(=O)N1CCCC(N1)C(=O)OCC(C)(C)C2, the IC50 [1] was 127 nM, the IC50 [2] was 93.8 nM and the IC50 [3] was 158 nM. For the same compound, the IC50 [4] was 91.6 nM, the IC50 [5] was 145 nM and the IC50 [6] was 169 nM. For the same compound, the viability, T/C [7] was 75.9%, the viability, T/C [8] was 56.3% and the viability, T/C [9] was 25.9%. The viability, T/C [10] was 19.5%, the viability, T/C [11] was 25.7% and the viability, T/C [12] was 14.8%. For the same compound, the viability, T/C [13] was 78.6%, the viability, T/C [14] was 49.9% and the viability, T/C [15] was 25.1%. It also gave a viability, T/C [16] of 25.5%, a viability, T/C [17] of 15.4% and a viability, T/C [18] of 13.2%. For the same compound, the viability, T/C [19] was 85.8%, the viability, T/C [20] was 57.5% and the viability, T/C [21] was 39.6%. It also gave a viability, T/C [22] of 21.4%, a viability, T/C [23] of 20.3% and a viability, T/C [24] of 14%. For the same compound, the viability, T/C [25] was 76.4%, the viability, T/C [26] was 44.7% and the viability, T/C [27] was 36.8%. For the same compound, the viability, T/C [28] was 21.9%, the viability, T/C [29] was 16.7% and the viability, T/C [30] was 17.3%. For the same compound, the viability, T/C [31] was 77.8%, the viability, T/C [32] was 59.2% and the viability, T/C [33] was 30.7%. The viability, T/C [34] was 21.5%, the viability, T/C [35] was 25.5% and the viability, T/C [36] was 15.9%. The viability, T/C [37] was 89.2%, the viability, T/C [38] was 57.2% and the viability, T/C [39] was 42%. It also gave a viability, T/C [40] of 26.8%, a viability, T/C [41] of 26.6% and a viability, T/C [42] of 18.8%.

For C#Cc1c(F)ccc2cc(O)cc(-c3ncc4c(N5CC6CCC(C5)N6)nc(OCC56CCCN5CC(F)C6)nc4c3F)c12 (stereo unspecified), the viability, T/C (compound 0.0316 µM) was 87.2% [middle of 8 runs], the viability, T/C (compound 10 µM) was 71.8% [middle of 8 runs] and the IC50 (compound alone, run of 06/10/2024) was greater than 10000 nM.

In the case of CC1(C)CCC(Nc2ncc(C(F)(F)F)c(-c3c[nH]c4c(P(C)(C)=O)c(C#N)ccc34)n2)CN1 (stereo unspecified), the viability, T/C (compound 0.000949 µM) is reported as 65.3% [middle of 4 runs], the viability, T/C (compound 0.003 µM) is reported as 24.7% [middle of 4 runs] and the viability, T/C (compound 0.00949 µM) is reported as 15.5% [middle of 4 runs]. The viability, T/C (compound 0.03 µM) was 9.86% [middle of 4 runs], the viability, T/C (compound 0.0949 µM) was 8.72% [middle of 4 runs] and the viability, T/C (compound 0.3 µM) was 8.1% [middle of 4 runs]. The IC50 (curve of compound) was 1.47 nM and < 0.949 nM and 1.51 nM.
